Experiments:
[1] = test system: recombinant SARS2 encoding A173V M^pro; format: cell-based, SARS-CoV-2; settings: read-out: IC50 (95% CI)
SARS2 M^pro P168G = settings: cited from earlier work
[2] = test system: recombinant SARS2 encoding ∆P168 M^pro; experiment: microbe, parasite or virus in culture; format: cell-based; settings: […], A549-hACE2 cells
[3] = test system: recombinant SARS2 encoding ∆P168/A173V M^pro; format: cell-based, SARS-CoV-2; settings: read-out: IC50 (95% CI)
SARS2 M^pro M49I = SARS2 M^pro M49I (Severe acute respiratory syndrome coronavirus 2, UniProt P0DTD1, M3312I); settings: cited from earlier work
SARS2 M^pro P168S [4] = target: T1, SARS2 M^pro P168S (Severe acute respiratory syndrome coronavirus 2, UniProt P0DTD1, P3431S); settings: cited from earlier work
SARS2 M^pro P168S [5] = target: T1, SARS2 M^pro P168S; format: cell-based, SARS-CoV-2

CC(C)(C)[C@H](NC(=O)C(F)(F)F)C(=O)N1C[C@H]2[C@@H]([C@H]1C(=O)N[C@H](C#N)C[C@@H]1CCNC1=O)C2(C)C [Nirmatrelvir, nirmatrelvir]
IC50 [1]: 36 nM

CC(C)C[C@H](NC(=O)OCc1ccccc1)C(=O)N[C@@H](C[C@@H]1CCNC1=O)C(O)S(=O)(=O)[O-].[Na+] (stereo partly drawn) [GC376]
effect of amino acid change on inhibitor susceptibility (SARS2 M^pro P168G): no effect

CCC(CC)COC(=O)[C@H](C)N[P@](=O)(OC[C@H]1O[C@@](C#N)(c2ccc3c(N)ncnn23)[C@H](O)[C@@H]1O)Oc1ccccc1 [Remdesivir, remdesivir]
Fold change in antiviral EC50 [2]: 0.9 fold
Fold change in antiviral EC50 ([2]; listed as remdesivir): none of the mutants alter susceptibility
IC50 [1]: 1300 nM
IC50 [3]: 1500 nM

Cn1cnc(Cn2c(=O)[nH]/c(=N\c3cc4cn(C)nc4cc3Cl)n(Cc3cc(F)c(F)cc3F)c2=O)n1 [Ensitrelvir, ensitrelvir]
IC50 [1]: 7.8 nM
IC50 [3]: 3.3 nM

CC(C)(C)NC(=O)N[C@H](C(=O)N1C[C@H]2[C@@H]([C@H]1C(=O)NC(CC1CCC1)C(=O)C(N)=O)C2(C)C)C(C)(C)C (stereo partly drawn) [boceprevir]
effect of amino acid change on inhibitor susceptibility (SARS2 M^pro P168G): improve susceptibility
effect of substitution on inhibitor susceptibility (SARS2 M^pro M49I): little effect
effect of amino acid change on inhibitor susceptibility (SARS2 M^pro P168S [4]): improve susceptibility
fold increase in susceptibility (SARS2 M^pro P168S [5]): 5.5 fold

From article PMC10058310 (Science Advances, 2023)
